# According to PubChem BioAssay AID2060603 (Molecular Pharmacology Branch, DTP, NCI, 2025):
# System: 422866-222-R5-J1-PDC spheroid viability
# Assay: Anticancer human tumor 422866-222-R5-J1-PDC patient-derived pancreatic adenocarcinoma cell line growth inhibition [CLK]
# Conditions: spheroids with HUVEC and MSC; for IC50: curve of first compound; for viability, T/C: stronger effect = lower value
# From the text: A high-throughput screen of multi-cell type tumor spheroids was designed to identify active combinations of […] and targeted small molecules. Complex spheroids include a stromal component modeled by human endothelial cells (HUVEC) and fibroblasts modeled by human mesenchymal stem cells (MSCs). The concentration ranges selected for each drug and investigational agent were based upon clinically achievable concentrations if the clinical Cmax of the agent was known.
# Compounds. The drugs and investigational agents: cirtuvivint (SM08502; NSC835563), CC-671 (NSC850746), vemurafenib (NSC761431), tapotoclax (NSC804041), sotorasib (NSC818433), adagrasib (NSC831453), MRTX-1133 (NSC836407), BAY2416964 (NSC825713), copanlisib (NSC816437), inavolisib (NSC800729), abemaciclib (NSC768073), osimertinib (NSC779217), entinostat (NSC756642), eltanexor (KPT-8602, NSC794443), venetoclax (NSC766270), ceralasertib (NSC777638), bortezomib (NSC756655), olaparib (NSC753686), talazoparib (NSC767125), alisertib (NSC759677), peposertib (NSC802822), gemcitabine (NSC613327), 5-fluorouracil (NSC19893), SN-38 (NSC673596), oxaliplatin (NSC266046), paclitaxel (NSC125973), and doxorubicin (NSC123127), were obtained from the National Cancer Institute (NCI) Developmental Therapeutics Program Chemical Repository. The FDA-approved anticancer drug set is available from the Developmental Therapeutics Program at https://dtp.cancer.gov/organization/dscb/obtaining/available plates.htm. […] The stock solutions were prepared in dimethyl sulfoxide (DMSO, Sigma-Aldrich, St. Louis, MO, cat. D2650), except for the platinum complexes which were prepared in saline (Quality Biological, Gaithersburg, MD, cat. 114-055-101), at 800-fold the tested concentration and stored at -70 degrees C prior to their use. All drugs and investigational agents were tested over a range starting from a high concentration at or near the clinical Cmax and decreasing in half-log increments. If the clinical Cmax for an agent had not been determined, the highest concentration tested was 10 microM.
# Cell Culture. All cells were maintained in an incubator at 37 degrees C and 5% CO2 with 95% humidity. The PDC lines were cultured according to standard operating procedures established by the NCI PDMR. Briefly, all PDCs were thawed and cultured in Matrigel-coated flasks prepared with a working solution of 1X Ham's F-12 nutrient mix, without supplementation (Invitrogen, Waltham, MA, cat. 11765054), 100 U/mL penicillin-streptomycin (Invitrogen, cat. 15140122), and 2.5% Matrigel (Corning Inc., Corning, NY, cat. 354248) for the first three passages. The 947758-054-R-J2-PDC line was cultured in 6B/Colon 1A media, which includes advanced DMEM/F-12 (Thermo Fisher Scientific, cat. 12634028), 10 mM HEPES (Thermo Fisher Scientific, cat. 15630080), 1X GlutaMAX supplement (Thermo Fisher Scientific, cat. 35050061), 0.1 mg/mL primocin (InvivoGen, cat. ant-pm-2), 10% defined fetal bovine serum, heat inactivated (HyClone Laboratories Inc., cat. SH30070.03HI), 1.25 mM N-Acetyl-L-cysteine (Sigma-Aldrich, cat. A9165), 10 mM nicotinamide (Sigma-Aldrich, cat. N0636), 1X B-27 supplement (Thermo Fisher Scientific, cat. 17504044), 1X N-2 supplement (Thermo Fisher Scientific, cat. 17502048), and 10 microM Y-27632 dihydrochloride (Tocris Bioscience, cat. 1254). The 876862-298-R-J1-PDC was cultured in 6E media, which includes all 6B/Colon 1A media components plus 50% L-WRN conditioned media (ATCC, cat. CRL-3276), 50 ng/mL recombinant human EGF recombinant protein (hEGF; Thermo Fisher Scientific, cat. PHG0311), 10 ng/mL recombinant human fibroblast growth factor 10 (hGFG-10; PeproTech, cat. 100-26), 1 ng/mL recombinant human fibroblast growth factor 2 (hFGF-2; PeproTech, cat. 100-18B), and 1 µM prostaglandin E2 (PGE2; Tocris, cat. 2296). The 227483-062-R1-J1-PDC line was cultured in Panc media, containing all 6E components except hFGF-2, with the addition of 500 nM SB-431542 (Selleckchem, cat. S1067) and 10 nM gastrin (Tocris, cat. 3006). […]
# [1] = second compound 0.0316 µM, first compound 0.0316 µM
# [2] = second compound 0.0316 µM, first compound 0.1 µM
# [3] = second compound 0.0316 µM, first compound 0.316 µM
# [4] = second compound 0.0316 µM, first compound 1 µM
# [5] = second compound 0.0316 µM, first compound 3.16 µM
# [6] = second compound 0.0316 µM, first compound 10 µM
# [7] = second compound 0.1 µM, first compound 0.0316 µM
# [8] = second compound 0.1 µM, first compound 0.1 µM
# [9] = second compound 0.1 µM, first compound 0.316 µM
# [10] = second compound 0.1 µM, first compound 1 µM
# [11] = second compound 0.1 µM, first compound 3.16 µM
# [12] = second compound 0.1 µM, first compound 10 µM
# [13] = second compound 0.316 µM, first compound 0.0316 µM
# [14] = second compound 0.316 µM, first compound 0.1 µM
# [15] = second compound 0.316 µM, first compound 0.316 µM
# [16] = second compound 0.316 µM, first compound 1 µM
# [17] = second compound 0.316 µM, first compound 3.16 µM
# [18] = second compound 0.316 µM, first compound 10 µM
# [19] = second compound 1 µM, first compound 0.0316 µM
# [20] = second compound 1 µM, first compound 0.1 µM
# [21] = second compound 1 µM, first compound 0.316 µM
# [22] = second compound 1 µM, first compound 1 µM
# [23] = second compound 1 µM, first compound 3.16 µM
# [24] = second compound 1 µM, first compound 10 µM
# [25] = second compound 3.16 µM, first compound 0.0316 µM
# [26] = second compound 3.16 µM, first compound 0.1 µM
# [27] = second compound 3.16 µM, first compound 0.316 µM
# [28] = second compound 3.16 µM, first compound 1 µM
# [29] = second compound 3.16 µM, first compound 3.16 µM
# [30] = second compound 3.16 µM, first compound 10 µM
# [31] = second compound 10 µM, first compound 0.0316 µM
# [32] = second compound 10 µM, first compound 0.1 µM
# [33] = second compound 10 µM, first compound 0.316 µM
# [34] = second compound 10 µM, first compound 1 µM
# [35] = second compound 10 µM, first compound 3.16 µM
# [36] = second compound 10 µM, first compound 10 µM
# 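Further: spheroids exposed to agents for seven days before readout.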
smiles,measurement,setting,value
C#Cc1c(F)ccc2cc(O)cc(-c3ncc4c(N5CC6CCC(C5)N6)nc(OCC56CCCN5CC(F)C6)nc4c3F)c12 (stereo unspecified) + CN1CCN(c2cc(C(=O)Nc3cc4cc(-c5cnn(C)c5)ccc4cn3)ccn2)CC1,IC50,second compound 0.0316 µM,1540 nM
same,IC50,second compound 0.1 µM,1780 nM
same,IC50,second compound 0.316 µM,1200 nM
same,IC50,second compound 1 µM,< 31.6 nM
same,IC50,second compound 3.16 µM,< 31.6 nM
same,IC50,second compound 10 µM,< 31.6 nM
same,"viability, T/C",[1],99.1%
same,"viability, T/C",[2],100%
same,"viability, T/C",[3],70.7%
same,"viability, T/C",[4],60.9%
same,"viability, T/C",[5],37.4%
same,"viability, T/C",[6],33.9%
same,"viability, T/C",[7],100%
same,"viability, T/C",[8],113%
same,"viability, T/C",[9],74.7%
same,"viability, T/C",[10],60.5%
same,"viability, T/C",[11],45.3%
same,"viability, T/C",[12],33.4%
same,"viability, T/C",[13],105%
same,"viability, T/C",[14],83.4%
same,"viability, T/C",[15],68.4%
same,"viability, T/C",[16],50.5%
same,"viability, T/C",[17],41.4%
same,"viability, T/C",[18],26.8%
same,"viability, T/C",[19],35.7%
same,"viability, T/C",[20],35.1%
same,"viability, T/C",[21],38%
same,"viability, T/C",[22],27.2%
same,"viability, T/C",[23],24.3%
same,"viability, T/C",[24],19%
same,"viability, T/C",[25],11.2%
same,"viability, T/C",[26],11.9%
same,"viability, T/C",[27],7.84%
same,"viability, T/C",[28],7.25%
same,"viability, T/C",[29],5.39%
same,"viability, T/C",[30],7.56%
same,"viability, T/C",[31],5.16%
same,"viability, T/C",[32],2.81%
same,"viability, T/C",[33],1.05%
same,"viability, T/C",[34],1.26%
same,"viability, T/C",[35],1.28%
same,"viability, T/C",[36],4.84%
C=C(F)C(=O)N1CCN(c2nc(OCC3CCCN3C)nc3c2CCN(c2cccc4cccc(Cl)c24)C3)CC1CC#N (stereo unspecified) + CN1CCN(c2cc(C(=O)Nc3cc4cc(-c5cnn(C)c5)ccc4cn3)ccn2)CC1,IC50,second compound 0.0316 µM,< 31.6 nM
same,IC50,second compound 0.1 µM,< 31.6 nM
same,IC50,second compound 0.316 µM,< 31.6 nM
same,IC50,second compound 1 µM,< 31.6 nM
same,IC50,second compound 3.16 µM,< 31.6 nM
same,IC50,second compound 10 µM,< 31.6 nM
same,"viability, T/C",[1],40.6%
same,"viability, T/C",[2],29.3%
same,"viability, T/C",[3],27%
same,"viability, T/C",[4],26.2%
same,"viability, T/C",[5],15.9%
same,"viability, T/C",[6],2.17%
same,"viability, T/C",[7],45.5%
same,"viability, T/C",[8],33.9%
same,"viability, T/C",[9],29.3%
same,"viability, T/C",[10],25.1%
same,"viability, T/C",[11],19.9%
same,"viability, T/C",[12],1.79%
same,"viability, T/C",[13],42.4%
same,"viability, T/C",[14],30.6%
same,"viability, T/C",[15],27.9%
same,"viability, T/C",[16],20.1%
same,"viability, T/C",[17],20%
same,"viability, T/C",[18],0.13%
same,"viability, T/C",[19],19.9%
same,"viability, T/C",[20],18.5%
same,"viability, T/C",[21],18.6%
same,"viability, T/C",[22],16.4%
same,"viability, T/C",[23],10.2%
same,"viability, T/C",[24],0.1%
same,"viability, T/C",[25],4.24%
same,"viability, T/C",[26],4.94%
same,"viability, T/C",[27],4.57%
same,"viability, T/C",[28],3.86%
same,"viability, T/C",[29],4.64%
same,"viability, T/C",[30],0.71%
same,"viability, T/C",[31],3.87%
same,"viability, T/C",[32],0.7%
same,"viability, T/C",[33],0.93%
same,"viability, T/C",[34],0.72%
same,"viability, T/C",[35],0.46%
same,"viability, T/C",[36],0.15%
CC(CO)NC(=O)c1cc(-c2ccc(Cl)cc2)nn(-c2cnn(C)c2)c1=O (stereo unspecified) + CN1CCN(c2cc(C(=O)Nc3cc4cc(-c5cnn(C)c5)ccc4cn3)ccn2)CC1,IC50,second compound 0.0316 µM,> 10000 nM
same,IC50,second compound 0.1 µM,> 10000 nM
same,IC50,second compound 0.316 µM,> 10000 nM
same,IC50,second compound 1 µM,< 31.6 nM
same,IC50,second compound 3.16 µM,< 31.6 nM
same,IC50,second compound 10 µM,< 31.6 nM
same,"viability, T/C",[1],115%
same,"viability, T/C",[2],104%
same,"viability, T/C",[3],106%
same,"viability, T/C",[4],135%
same,"viability, T/C",[5],106%
same,"viability, T/C",[6],75.7%
same,"viability, T/C",[7],115%
same,"viability, T/C",[8],118%
same,"viability, T/C",[9],104%
same,"viability, T/C",[10],116%
same,"viability, T/C",[11],104%
same,"viability, T/C",[12],82.6%
same,"viability, T/C",[13],107%
same,"viability, T/C",[14],93.5%
same,"viability, T/C",[15],86.9%
same,"viability, T/C",[16],88.7%
same,"viability, T/C",[17],80.8%
same,"viability, T/C",[18],68.8%
same,"viability, T/C",[19],30.9%
same,"viability, T/C",[20],27.6%
same,"viability, T/C",[21],31.6%
same,"viability, T/C",[22],31.1%
same,"viability, T/C",[23],31.3%
same,"viability, T/C",[24],32%
same,"viability, T/C",[25],13.1%
same,"viability, T/C",[26],13.4%
same,"viability, T/C",[27],12.1%
same,"viability, T/C",[28],12%
same,"viability, T/C",[29],11.5%
same,"viability, T/C",[30],13.6%
same,"viability, T/C",[31],2.51%
same,"viability, T/C",[32],3.09%
same,"viability, T/C",[33],1.44%
same,"viability, T/C",[34],2.25%
same,"viability, T/C",[35],3.26%
same,"viability, T/C",[36],1.54%
